For this assay, the target named is T1, human EP2 receptors (Homo sapiens, UniProt P43116).
T1 construct: expressed in transfected cells
Put plainly: cell-based cAMP TR-FRET assay, rightward shift of PGE2 concentration response curve (Schild KB), EP2. The note with it: read-out: EP2 KB. The procedure:
KB value indicates the antagonist concentration required for a twofold rightward shift in the PGE2 dose-response curve. Thus, a lower KB value indicates a higher inhibitory potency.
The synthesis was carried out starting from commercially available 2-methyl indole or 2-trifluoromethyl indoles (11a-c), which on treatment with bromoacetonitrile provided intermediates (12a-c), which then were subjected to lithium aluminum hydride to reduce cyanide to amines. […] Synthesized derivatives were tested by using a cAMP-derived TR-FRET assay, at single concentration (1 μM) to observe a rightward shift of PGE2 (an EP2 agonist) concentration response curve in a C6G cell line that overexpresses human EP2 receptors.
A lower KB value indicates a higher inhibitory potency.
Intracellular cAMP was measured with a cell-based homogeneous time-resolved fluorescence resonance energy transfer (TR-FRET) method (Cisbio Bioassays). […] Endogenous cAMP produced by cells competes with labeled cAMP for binding to the cAMP antibody and thus reduces the FRET signal. Cells stably expressing human DP1, EP2, EP4, or IP receptors were seeded into 384-well plates in 30 μl complete medium (4,000 cells/well) and grown overnight. The medium was carefully withdrawn and 10 μl Hanks' Buffered Salt Solution (HBSS) (Hyclone) containing 20 μM rolipram was added into the wells to block phosphodiesterases. The cells were incubated at room temperature for 0.5-1 h and then treated with vehicle or test compound for 10 min before addition of increasing concentrations of appropriate agonist: BW245C for DP1, PGE2 for EP2 and EP4, or iloprost for IP. The cells were incubated at room temperature for 40 min, then lysed in 10 μl lysis buffer containing the FRET acceptor cAMP-d2 and 1 min later another 10 μl lysis buffer with anti-cAMP-Cryptate was added. After 60-90 min incubation at room temperature, the FRET signal was measured by an Envision 2103 Multilabel Plate Reader (PerkinElmer Life Sciences) with a laser excitation at 337 nm and dual emissions at 665 nm and 590 nm for d2 and Cryptate (50 s delay), respectively. The FRET signal was expressed as: F665/F590×10^4.
On the technique in general: In TR-FRET formats the signal depends on donor and acceptor labels being close together.

The mark [1] stands for this setting: Table 1, Schild KB from single antagonist concentration 1 μM, average of 2-3 measurements in duplicate.

Where two headings read alike, the source gives them in different places.

T1 sequence (P43116 whole entry): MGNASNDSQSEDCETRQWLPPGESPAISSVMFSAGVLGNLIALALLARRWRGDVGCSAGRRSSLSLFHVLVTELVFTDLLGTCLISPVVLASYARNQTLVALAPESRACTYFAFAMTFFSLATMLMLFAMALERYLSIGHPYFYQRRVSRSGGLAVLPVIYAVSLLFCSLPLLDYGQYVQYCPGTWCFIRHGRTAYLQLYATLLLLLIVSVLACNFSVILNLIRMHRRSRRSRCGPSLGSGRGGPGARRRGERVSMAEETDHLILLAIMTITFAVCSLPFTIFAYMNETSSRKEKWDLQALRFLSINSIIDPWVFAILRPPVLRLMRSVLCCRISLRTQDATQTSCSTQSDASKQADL

Consider `COc1ccc(C(=O)NCCn2c(C)cc3ccccc32)cc1` [Compound 6c], for which the Kb under setting [1] stood at 75.6 nM.

Regarding `CCNc1ccc(C(=O)NCCn2c(C)cc3ccccc32)cc1` [Compound 6d], the Kb under setting [1] stood at 15.5 nM.

With `CCCCN(CCCC)c1ccc(C(=O)NCCn2c(C)cc3ccccc32)cc1` [Compound 6h], the Kb under setting [1] turned out to be 68.8 nM.

For `Cc1cc2ccccc2n1CCNC(=O)c1ccc(O)cc1` [Compound 6j], the Kb under setting [1] is above 1000 nM.

`Cc1cc2ccccc2n1CCNC(=O)c1ccc(NC(=N)N)cc1` [Compound 6k]: the Kb under setting [1] is above 1000 nM.

Regarding `CC(=O)Oc1ccc(C(=O)NCCn2c(C)cc3ccccc32)cc1` [Compound 6m], the Kb under setting [1] was 150 nM.

Turning to `CC(=O)Nc1ccc(C(=O)NCCn2c(C)cc3ccccc32)cc1` [Compound 6n], the Kb under setting [1] came out at 97 nM.

For the molecule `Cc1cc2ccccc2n1CCNC(=O)c1ccc(NC(=O)c2ccccc2F)cc1` [Compound 6o], under setting [1], the Kb turned out to be 51 nM.

`Cc1cc2ccccc2n1CCNC(=O)c1ccc(C(=O)N(C)C)cc1` [Compound 6q]: the Kb under setting [1] is above 1000 nM.

As to `CCN(CC)C(=O)c1ccc(C(=O)NCCn2c(C)cc3ccccc32)cc1` [Compound 6r], the Kb under setting [1] stood at 800 nM.

`Cc1cc2ccccc2n1CCNC(=O)c1ccc(C(=O)OC(C)(C)C)cc1` [Compound 6t]: the Kb under setting [1] was 100 nM.

For the molecule `Cc1cc2ccccc2n1CCNC(=O)c1ccc(S(N)(=O)=O)cc1` [Compound 6v], under setting [1], the Kb was 486 nM.

On to `Cc1cc2ccccc2n1CCNC(=O)c1cccc(S(N)(=O)=O)c1` [Compound 6w], for which the Kb is above 1000 nM.

Consider `Cc1cc2ccccc2n1CCNC(=O)c1ccc(CNC(=O)OC(C)(C)C)cc1` [Compound 6x], for which the Kb under setting [1] was 84 nM.

In the case of `Cc1cc2ccccc2n1CCNC(=O)c1ccc(CN)cc1` [Compound 6y], the Kb under setting [1] stood at 690 nM.

In the case of `Cc1cc2ccccc2n1CCNC(=O)c1ccc(CCN)cc1` [Compound 6z], under setting [1], the Kb stood at 1220 nM.

Regarding `Cc1cc2ccccc2n1CCNC(=O)c1ccc(N(C)C)c(F)c1` [Compound 7a], the Kb under setting [1] was found to be 18.1 nM.

Consider `CC(=O)Nc1ccc(C(=O)NCCn2c(C)cc3ccccc32)cc1F` [Compound 7b], for which the Kb under setting [1] worked out at 530 nM.

Turning to `COc1ccc(C(=O)NCCn2c(C)cc3ccccc32)cc1F` [Compound 7c], the Kb under setting [1] was determined as 86.8 nM.

`CCN(CC)c1ccc(C(=O)NCCn2c(C)cc3ccccc32)cc1F` [Compound 7d]: the Kb under setting [1] was 4.6 nM.

Take `CCN(CC)c1ccc(C(=O)NCCn2c(C)cc3ccccc32)cc1C(F)(F)F` [Compound 7e]: the Kb under setting [1] worked out at 310 nM.

Take `CCNc1ccc(C(=O)NCCn2c(C)cc3ccccc32)cc1C(F)(F)F` [Compound 7f]: the Kb under setting [1] turned out to be 20.2 nM.

With `CCN(CC)c1ccc(C(=O)NCCn2c(C)cc3ccccc32)cc1OC` [Compound 7g], the Kb under setting [1] amounted to 61.2 nM.

Take `Cc1cc2ccccc2n1CCNC(=O)c1ccc(C#N)c(F)c1` [Compound 7h]: the Kb under setting [1] turned out to be 140 nM.

As to `Cc1cc2ccccc2n1CCNC(=O)c1ccc(C#N)cc1F` [Compound 7i], the Kb under setting [1] amounted to 280 nM.

On to `Cc1cc2ccccc2n1CCNC(=O)c1ccc(N2CCC(C)CC2)cc1` [Compound 7l], for which the Kb under setting [1] was 30.3 nM.

Regarding `CCOC(=O)C1CCN(c2ccc(C(=O)NCCn3c(C)cc4ccccc43)cc2)CC1` [Compound 7m], the Kb under setting [1] is 500 nM.

For the molecule `Cc1cc2ccccc2n1CCNC(=O)c1ccc(N2CCN(C)CC2)cc1` [Compound 7q], the Kb under setting [1] came out at 64 nM.

For `Cc1cc2ccccc2n1CCNC(=O)c1cccc(N2CCN(C)CC2)c1` [Compound 7r], the Kb under setting [1] amounted to 770 nM.

Consider `Cc1cc2ccccc2n1CCNC(=O)c1cccc(N2CCOCC2)c1` [Compound 7s], for which the Kb under setting [1] was above 1000 nM.

On to `Cc1cc2ccccc2n1CCNC(=O)c1ccc(N2CCCN(C)CC2)cc1` [Compound 7v], for which, under setting [1], the Kb turned out to be 148 nM.

Regarding `Cc1cc2ccccc2n1CCNC(=O)c1ccc(-n2cnnn2)cc1` [Compound 7x], the Kb under setting [1] worked out at 42.2 nM.

Regarding `Cc1cc2ccccc2n1CCNC(=O)c1ccc(-n2nn[nH]c2=S)cc1` [Compound 7y], the Kb under setting [1] worked out at 32.2 nM.

On to `Cc1cc2ccccc2n1CCNC(=O)c1ccc(C2CCCCC2)cc1` [Compound 8b], for which the Kb under setting [1] is 120 nM.

In the case of `Cc1cc2ccccc2n1CCNC(=O)c1ccc(N2CCNCC2)cc1` [Compound 8c], under setting [1], the Kb was determined as 410 nM.

With `CC(=O)N1CCN(c2ccc(C(=O)NCCn3c(C)cc4ccccc43)cc2)CC1` [Compound 8d], the Kb under setting [1] amounted to 50.2 nM.

Take `Cc1cc2ccccc2n1CCNC(=O)c1ccc2[nH]nnc2c1` [Compound 8e]: under setting [1], the Kb came to 87.5 nM.

On to `Cc1cc2ccccc2n1CCNC(=O)c1ccc2[nH]c(=S)[nH]c(=O)c2c1` [Compound 8f], for which, under setting [1], the Kb was 84.1 nM.

Consider `Cc1cc2ccccc2n1CCNC(=O)c1ccc(C2CCCN(C(=O)OC(C)(C)C)C2)cc1` (stereo not drawn) [Compound 8g], for which the Kb under setting [1] came out at 95 nM.

For the molecule `Cc1cc2ccccc2n1CCNC(=O)c1ccc(C2CCCNC2)cc1` (stereo not drawn) [Compound 8h], under setting [1], the Kb is above 1000 nM.

Consider `Cc1cc2ccccc2n1CCNC(=O)c1ccc(OC2CCNCC2)cc1` [Compound 8i], for which the Kb under setting [1] was above 1000 nM.

With `Cc1cc2ccccc2n1CCNC(=O)c1ccc(CN2CCOCC2)cc1` [Compound 8j], the Kb under setting [1] worked out at 970 nM.

With `Cc1cc2ccccc2n1CCNC(=O)c1ccc(CN2CCN(C)CC2)cc1` [Compound 8k], under setting [1], the Kb was above 1000 nM.

Turning to `Cc1cc2ccccc2n1CCNC(=O)c1cnc(N)nc1` [Compound 8l], under setting [1], the Kb was above 1000 nM.

In the case of `Cc1cc2ccccc2n1CCNC(=O)c1cccnc1N` [Compound 8p], the Kb under setting [1] came out at 520 nM.

`Cc1cc2ccccc2n1CCNC(=O)C1CCC(c2ncccn2)CC1` (stereo not drawn) [Compound 8q]: the Kb under setting [1] came out at 380 nM.

Consider `Cc1cc2cc(F)ccc2n1CCNC(=O)c1ccc(N2CCOCC2)cc1` [Compound 8r], for which the Kb under setting [1] came out at 14.9 nM.

Consider `Cc1cc2cc(F)ccc2n1CCNC(=O)c1ccc(N2CCN(C)CC2)c(F)c1` [Compound 8s], for which, under setting [1], the Kb was 62.2 nM.

With `CCN(CC)c1ccc(C(=O)NCCn2c(C(F)(F)F)cc3ccccc32)cc1` [Compound 8t], under setting [1], the Kb was 150 nM.

With `O=C(NCCn1c(C(F)(F)F)cc2ccccc21)c1ccc(N2CCOCC2)cc1` [Compound 8u], under setting [1], the Kb was determined as 120 nM.

As for `CCN(CC)c1ccc(C(=O)NCCn2c(C)nc3ccccc32)cc1` [Compound 8v], the Kb under setting [1] worked out at 190 nM.

With `CCN(CC)c1ccc(C(=O)NCCn2cnc3ccccc32)cc1` [Compound 8w], the Kb under setting [1] was above 1000 nM.

Turning to `CCN(CC)C(=O)c1ccc(C(=O)NCCc2c(C)[nH]c3ccccc23)cc1` [Compound 8y], the Kb under setting [1] is above 1000 nM.

Regarding `Cc1[nH]c2ccccc2c1CCNC(=O)c1ccc(N2CCCCC2)cc1` [Compound 9b], the Kb under setting [1] is 19.8 nM.

As to `Cc1[nH]c2ccccc2c1CCNC(=O)c1ccc(N2CCOCC2)c(F)c1` [Compound 9d], the Kb under setting [1] turned out to be 66 nM.

Regarding `Cc1[nH]c2ccccc2c1CCNC(=O)c1ccc(N2CCN(C)CC2)cc1` [Compound 9e], under setting [1], the Kb came to 135 nM.

Regarding `CCNc1ncc(C(=O)NCCc2c(C)[nH]c3ccccc23)cn1` [Compound 9f], the Kb under setting [1] turned out to be 155 nM.

For `Cc1[nH]c2ccccc2c1CCNC(=O)c1cnc(N2CCOCC2)nc1` [Compound 9g], the Kb under setting [1] came to 280 nM.

On to `Cc1cc2ccccc2n1CCNC(=O)c1nc2cc(F)ccc2[nH]1` [Compound 9h], for which the Kb under setting [1] was 130 nM.

For the molecule `COc1cc(/C=C/C(=O)N2CCCC(c3c(C)[nH]c4ccccc34)C2)cc(OC)c1OC` (stereo not drawn) [Compound 16n], the Kb (Table 3, Schild KB from single concentration 1 μM) is above 1000 nM.
